From patent US11053204B2, “Pyrimidinyloxy benzene derivatives as herbicides” (FMC Corporation, priority 2015, dated 2021)

Columns and labels:
Assay type in all cases: in vivo
[1] = tested on: giant foxtail (Setaria faberii); experiment: Test A preemergence, visual injury rating; conditions: for Plant response rating, Foxtail, Giant: 31 g ai/ha, 0 to 100 scale, 0 no effect, 100 complete control; for Foxtail, Giant plant response rating: 0 to 100 scale (0 no effect, 100 complete control)
Method in brief: (§1)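 Greenhouse pot test, loam/sand soil. Formulation: non-phytotoxic solvent mix plus surfactant. Pre: directed spray onto soil after sowing. Post: plants at 1–2 leaf, 2–10 cm. Rated visually vs untreated controls at ~10 d, 0 (no effect) to 100 (complete control).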

[2] = tested on: barnyardgrass (Echinochloa crus-galli); experiment: Test A preemergence, visual injury rating; conditions: for Plant response rating, Barnyardgrass: 31 g ai/ha, 0 to 100 scale, 0 no effect, 100 complete control; for Barnyardgrass plant response rating: 0 to 100 scale (0 no effect, 100 complete control)
Method in brief: as §1

[3] = tested on: Italian ryegrass (Lolium multiflorum); experiment: Test A preemergence, visual injury rating; conditions: for Plant response rating, Ryegrass, Italian: 31 g ai/ha, 0 to 100 scale, 0 no effect, 100 complete control; for Ryegrass, Italian plant response rating: 0 to 100 scale (0 no effect, 100 complete control)
Method in brief: as §1

[4] = tested on: pigweed (Amaranthus retroflexus); experiment: Test A preemergence, visual injury rating; conditions: for Plant response rating, Pigweed: 31 g ai/ha, 0 to 100 scale, 0 no effect, 100 complete control; for Pigweed plant response rating: 0 to 100 scale (0 no effect, 100 complete control)
Method in brief: as §1

kochia (Kochia scoparia) [5] = experiment: Test A preemergence, visual injury rating; conditions: for Plant response rating, Kochia: 31 g ai/ha, 0 to 100 scale, 0 no effect, 100 complete control; for Kochia plant response rating: 0 to 100 scale (0 no effect, 100 complete control)
Method in brief: as §1

[6] = tested on: ragweed (common ragweed, Ambrosia elatior); experiment: Test A preemergence, visual injury rating; conditions: for Plant response rating, Ragweed: 31 g ai/ha, 0 to 100 scale, 0 no effect, 100 complete control; for Ragweed plant response rating: 0 to 100 scale (0 no effect, 100 complete control)
Method in brief: as §1

[7] = tested on: giant foxtail (Setaria faberii); experiment: Test A postemergence, visual injury rating; conditions: 0 is no effect, 100 is complete control; for Foxtail, Giant plant response rating: 31 g ai/ha, 0 to 100 scale, approximately 10 days
Source text: (§2) Seeds of plant species selected from barnyardgrass (Echinochloa crus-galli), kochia (Kochia scoparia), ragweed (common ragweed, Ambrosia elatior), Italian ryegrass (Lolium multiflorum), large (Lg) crabgrass (Digitaria sanguinalis), giant foxtail (Setaria faberii), morningglory (Ipomoea spp.), pigweed (Amaranthus retroflexus), velvetleaf (Abutilon theophrasti), wheat (Triticum aestivum), and corn (Zea mays) were planted into a blend of loam soil and sand and treated preemergence with a directed soil spray using test chemicals formulated in a non-phytotoxic solvent mixture which included a surfactant.
(§3) At the same time, plants selected from these crop and weed species and also blackgrass (Alopecurus myosuroides), and galium (catchweed bedstraw, Galium aparine) were planted in pots containing the same blend of loam soil and sand and treated with postemergence applications of test chemicals formulated in the same manner. Plants ranged in height from 2 to 10 cm and were in the one- to two-leaf stage for the postemergence treatment. Treated plants and untreated controls were maintained in a greenhouse for approximately 10 days, after which time all treated plants were compared to untreated controls and visually evaluated for injury. Plant response ratings, summarized in Table A, are based on a 0 to 100 scale where 0 is no effect and 100 is complete control. A dash (-) response means no test result.

[8] = tested on: blackgrass (Alopecurus myosuroides); experiment: Test A postemergence, visual injury rating; conditions: 0 is no effect, 100 is complete control; for Blackgrass plant response rating: 31 g ai/ha, 0 to 100 scale, approximately 10 days
Source text: as §2, §3

[9] = tested on: barnyardgrass (Echinochloa crus-galli); experiment: Test A postemergence, visual injury rating; conditions: 0 is no effect, 100 is complete control; for Barnyardgrass plant response rating: 31 g ai/ha, 0 to 100 scale, approximately 10 days
Source text: as §2, §3

corn (Zea mays) = experiment: Test A postemergence, visual injury rating; conditions: 0 is no effect, 100 is complete control; for Corn plant response rating: 31 g ai/ha, 0 to 100 scale, approximately 10 days
Source text: as §2, §3

[10] = tested on: Italian ryegrass (Lolium multiflorum); experiment: Test A postemergence, visual injury rating; conditions: 0 is no effect, 100 is complete control; for Ryegrass, Italian plant response rating: 31 g ai/ha, 0 to 100 scale, approximately 10 days
Source text: as §2, §3

[11] = tested on: wheat (Triticum aestivum); experiment: Test A postemergence, visual injury rating; conditions: 0 is no effect, 100 is complete control; for Wheat plant response rating: 31 g ai/ha, 0 to 100 scale, approximately 10 days
Source text: as §2, §3

[12] = tested on: pigweed (Amaranthus retroflexus); experiment: Test A postemergence, visual injury rating; conditions: 0 is no effect, 100 is complete control; for Pigweed plant response rating: 31 g ai/ha, 0 to 100 scale, approximately 10 days
Source text: as §2, §3

kochia (Kochia scoparia) [13] = experiment: Test A postemergence, visual injury rating; conditions: 0 is no effect, 100 is complete control; for Kochia plant response rating: 31 g ai/ha, 0 to 100 scale, approximately 10 days
Source text: as §2, §3

[14] = tested on: galium (catchweed bedstraw, Galium aparine); experiment: Test A postemergence, visual injury rating; conditions: 0 is no effect, 100 is complete control; for Galium plant response rating: 31 g ai/ha, 0 to 100 scale, approximately 10 days
Source text: as §2, §3

[15] = tested on: ragweed (common ragweed, Ambrosia elatior); experiment: Test A postemergence, visual injury rating; conditions: 0 is no effect, 100 is complete control; for Ragweed plant response rating: 31 g ai/ha, 0 to 100 scale, approximately 10 days
Source text: as §2, §3

[16] = tested on: sedge, umbrella (small-flower umbrella sedge, Cyperus difformis); experiment: Test B flooded paddy test, plant response rating; conditions: 250 g ai/ha; Flood; scale of 0 to 100 where 0 is no effect and 100 is complete control; 13 to 15 days
Source text: (§4) At time of treatment, test pots were flooded to 3 cm above the soil surface, treated by application of test compounds directly to the paddy water, and then maintained at that water depth for the duration of the test. Treated plants and controls were maintained in a greenhouse for 13 to 15 days, after which time all species were compared to controls and visually evaluated. […] A dash (-) response means no test result.

[17] = tested on: barnyardgrass (Echinochloa crus-galli); experiment: Test B flooded paddy test, plant response rating; conditions: 250 g ai/ha; Flood; scale of 0 to 100 where 0 is no effect and 100 is complete control; 13 to 15 days
Source text: as §4

[18] = tested on: ducksalad (Heteranthera limosa); experiment: Test B flooded paddy test, plant response rating; conditions: 250 g ai/ha; Flood; scale of 0 to 100 where 0 is no effect and 100 is complete control; 13 to 15 days
Source text: as §4

rice (Oryza sativa) = experiment: Test B flooded paddy test, plant response rating; conditions: 250 g ai/ha; Flood; scale of 0 to 100 where 0 is no effect and 100 is complete control; 13 to 15 days
Source text: as §4

SMILES	Foxtail, Giant plant response rating ([1]; 125 g ai/ha)	Barnyardgrass plant response rating ([2]; 125 g ai/ha)	Ryegrass, Italian plant response rating ([3]; 125 g ai/ha)	Pigweed plant response rating ([4]; 125 g ai/ha)	Kochia plant response rating (kochia (Kochia scoparia) [5]; 125 g ai/ha)	Ragweed plant response rating ([6]; 125 g ai/ha)	Foxtail, Giant plant response rating (0 to 100 scale) ([7]; 125 g ai/ha)	Blackgrass plant response rating (0 to 100 scale) ([8]; 125 g ai/ha)	Barnyardgrass plant response rating (0 to 100 scale) ([9]; 125 g ai/ha)	Corn plant response rating (0 to 100 scale) (corn (Zea mays); 125 g ai/ha)	Ryegrass, Italian plant response rating (0 to 100 scale) ([10]; 125 g ai/ha)	Wheat plant response rating (0 to 100 scale) ([11]; 125 g ai/ha)	Pigweed plant response rating (0 to 100 scale) ([12]; 125 g ai/ha)	Kochia plant response rating (0 to 100 scale) (kochia (Kochia scoparia) [13]; 125 g ai/ha)	Galium plant response rating (0 to 100 scale) ([14]; 125 g ai/ha)	Ragweed plant response rating (0 to 100 scale) ([15]; 125 g ai/ha)	Plant response rating, Sedge, Umbrella [16]	Plant response rating, Barnyardgrass [17]	Plant response rating, Ducksalad [18]	Plant response rating, Rice (rice (Oryza sativa))	further results
O=C(OCC(F)(F)C(F)(F)F)c1c(F)cccc1Oc1ncc(Br)cn1 [Compound 4]	0	0	0	0	0	0	0	0	0	0	0	0	0	0	0	0	0	0	0	0	Plant response rating, Foxtail, Giant [1]: 0; Plant response rating, Barnyardgrass [2]: 0; Plant response rating, Ryegrass, Italian [3]: 0; Plant response rating, Pigweed [4]: 0; Plant response rating, Kochia (kochia (Kochia scoparia) [5]): 0; Plant response rating, Ragweed [6]: 0; Foxtail, Giant plant response rating [7]: 0; Blackgrass plant response rating [8]: 0; Barnyardgrass plant response rating [9]: 0; Corn plant response rating (corn (Zea mays)): 0; Ryegrass, Italian plant response rating [10]: 0; Wheat plant response rating [11]: 0; Pigweed plant response rating [12]: 0; Kochia plant response rating (kochia (Kochia scoparia) [13]): 0; Galium plant response rating [14]: 0; Ragweed plant response rating [15]: 0
O=C(OCC(F)(F)C(F)(F)F)c1c(F)cccc1Oc1ncc(Cl)cn1 [Compound 5]	0	0	0	0	0	0	0	0	0	0	0	0	0	0	0	0	0	0	0	0	Plant response rating, Foxtail, Giant [1]: 0; Plant response rating, Barnyardgrass [2]: 0; Plant response rating, Ryegrass, Italian [3]: 0; Plant response rating, Pigweed [4]: 0; Plant response rating, Kochia (kochia (Kochia scoparia) [5]): 0; Plant response rating, Ragweed [6]: 0; Foxtail, Giant plant response rating [7]: 0; Blackgrass plant response rating [8]: 0; Barnyardgrass plant response rating [9]: 0; Corn plant response rating (corn (Zea mays)): 0; Ryegrass, Italian plant response rating [10]: 0; Wheat plant response rating [11]: 0; Pigweed plant response rating [12]: 0; Kochia plant response rating (kochia (Kochia scoparia) [13]): 0; Galium plant response rating [14]: 0; Ragweed plant response rating [15]: 0
O=C(OCC1CCCC1)c1c(Br)cccc1Oc1ncc(Cl)cn1 [Compound 6]	60	10	0	10	0	0	10	10	10	0	0	0	60	40	60	10	0	0	0	0	Foxtail, Giant plant response rating ([1]; 500 g ai/ha): 100; Barnyardgrass plant response rating ([2]; 500 g ai/ha): 60; Ryegrass, Italian plant response rating ([3]; 500 g ai/ha): 70; Pigweed plant response rating ([4]; 500 g ai/ha): 70; Kochia plant response rating (kochia (Kochia scoparia) [5]; 500 g ai/ha): 0; Ragweed plant response rating ([6]; 500 g ai/ha): 0; Foxtail, Giant plant response rating (0 to 100 scale) ([7]; 500 g ai/ha): 50; Blackgrass plant response rating (0 to 100 scale) ([8]; 500 g ai/ha): 30; Barnyardgrass plant response rating (0 to 100 scale) ([9]; 500 g ai/ha): 40; Corn plant response rating (0 to 100 scale) (corn (Zea mays); 500 g ai/ha): 10; Ryegrass, Italian plant response rating (0 to 100 scale) ([10]; 500 g ai/ha): 40; Wheat plant response rating (0 to 100 scale) ([11]; 500 g ai/ha): 10; Pigweed plant response rating (0 to 100 scale) ([12]; 500 g ai/ha): 90; Kochia plant response rating (0 to 100 scale) (kochia (Kochia scoparia) [13]; 500 g ai/ha): 90; Galium plant response rating (0 to 100 scale) ([14]; 500 g ai/ha): 90; Ragweed plant response rating (0 to 100 scale) ([15]; 500 g ai/ha): 30
